In general, Ki refers to the dissociation constant of the complex between target and ligand, obtained from inhibition or displacement. What is called Kd is the constant that tells how readily two partners part at equilibrium. Broadly, the IC50 is the point on the concentration scale where inhibition reaches its midpoint. Low values mean inhibition by little substance, high ones a need for much substance.

These results are taken from article PMC4526366 (PLoS ONE, 2015).

Series [1] deals with T1, α-thrombin (Homo sapiens, UniProt P00734).
T1 construct: purchased Sigma; Haematologic Technologies; or prepared in house from prothrombin (Enzyme Research Laboratories) with Oxyuranus scutellatus venom
The experiment in a line: Inhibition of thrombin-mediated hydrolysis of S2238. In kind it is biochemical. On the procedure: […] Reactions were started by addition of thrombin (0.5 nM) and absorbance was monitored for 10 minutes at 405 nm in a microplate reader. The data were fit to competitive or non-competitive models of inhibition using GraphPad Prism 5. In both cases, nonlinear regression was used to fit to the hyperbolic equation: v=Vmaxapp [S]/(Kmapp+[S]) In the case of competitive inhibition Vmaxapp = Vmax and in the case of noncompetitive inhibition Kmapp = Km.
In the case of competitive inhibition the inhibition constant (Ki) was obtained from fitting of: Kmapp = Km(1+[I]/Ki) .
For noncompetitive inhibition Ki was determined by fitting of: Vmaxapp = Vmax/(1+[I]/Ki)
The experiments were repeated three times.

Series [2] addresses T2, thrombin (Homo sapiens, UniProt P00734). As to conditions: 2 h, 37°C, TBS pH 7.4, MALDI MS; for cleavage by thrombin (peptide remaining / digestion): 25 μM peptide, 1 μM thrombin (25:1). The method, then: Reactions were stopped by freezing at –20°C until analysis. Samples (2 μl) were desalted in C-8 micro-columns (Ziptip-Milipore), washing 3 times with 0.1% TFA and eluting with 60% acetonitrile in water. Washes were diluted with 4 μl 50% acetonitrile and spotted (0.5–1 μl) on MALDI plates followed by addition of matrix solution. After drying, they were injected into the MS instrument and analyzed in reflectron (peptide plus thrombin) or linear (peptide alone) mode.

The subject of series [3] is thrombin (α-thrombin). As to the kind of experiment: thrombin at 1 μM in 1X TBS (10 X dilution of 10 X TBS pH 7.4). To be noted: 37°C, up to 2 hours.
For series [4], the target named is T3, thrombin (α-thrombin) (Homo sapiens, UniProt P00734).
T3 construct: purchased Sigma; Haematologic Technologies; or prepared in house from prothrombin (Enzyme Research Laboratories) with Oxyuranus scutellatus venom
As to the kind of experiment: Screening for inhibition of serine proteases (fluorogenic substrate hydrolysis). In kind it is biochemical. As to conditions: 1 μM peptide, pre-incubated 30°C 10 min, mean of three independent experiments in triplicate.
Method: Linear fits of fluorescence increases as a function of time were verified with the Magellan—Data Analysis Software (Tecan group Ltd), and the slope in arbitrary fluorescence units per second (r^2 > 0.95) was used to calculate hydrolysis rate. Each experiment was performed in triplicate and the mean and standard error of three independent experiments were calculated. The substrate hydrolysis rate in the absence of the peptide was considered as 100% and compared with the remaining enzymatic activity in the presence of the peptide.

The target in series [5] is T1, α-thrombin. As to the kind of experiment: Surface plasmon resonance, thrombin binding to immobilized peptide. As to conditions: 150 mM NaCl. The method, then:
Surface plasmon resonance (SPR) was used to measure interaction between immobilized peptides and thrombin using a Biacore T100 instrument. Approximately 500 resonance units of hyalomin-1 biotinylated at Lys1 or its N-terminal cleavage product (01–41) were bound to a neutravidin surface that had been immobilized on C5 chips using the amine coupling procedure. Kinetic measurements were carried out by injecting different concentrations of thrombin in 10 mM HEPES pH 7.4, 150 mM NaCl, 0.05%Tween-20. The chip surface was regenerated using injections of 10 mM glycine pH 2.5. Data were analyzed by global fitting of a 1:1 single state model using the Biacore T100 evaluation software. Binding of γ-thrombin with the same surface was also investigated under similar conditions.
(In general: In SPR one partner is held on a chip, and binding of the other changes the refractive index at the surface.)

For series [6], the system named is BALB/c mice. As to conditions: 2.5 mg/kg intravenous, tail transection after 15 min, hemoglobin by absorbance at 540.
Method: Briefly, BALB/c mice were anesthetized (xylazine and ketamine) and the common carotid artery was isolated for measuring blood flow continuously using a 0.5-V Doppler flow probe coupled to a TS420 flow meter (Thransonic Systems, Ithaca, NY) [21]. Before induction of thrombosis the tail vein was injected with 50 μl of hyalomin-1 (1 and 2.5 mg/kg) or vehicle (PBS). Thrombi were formed by placing a piece of filter paper (1 x 2 mm) saturated with 7.5% FeCl3 on the adventitial surface or the artery for 3 minutes. After washing with normal saline, blood flow was continuously monitored for 60 minutes or until the blood flow dropped to zero for at least 10 seconds. Tail bleeding was performed on anesthetized mice injected intravenously with peptide (2.5 mg/kg) or vehicle alone (PBS) in 100 μl. After 15 minutes, the distal 2 mm segment was removed and the tail was immersed in 40 ml distilled 37°C warmed water. Absorbance at 540 was measured to estimate hemoglobin content.
The target in series [7] is T2, thrombin. The experiment in a line: biochemical.
Method: Inhibition of thrombin-mediated activation of FXI in the presence of long-chain (P700) polyphosphate (polyP) was done in according to Choi et al. [17] by adding 2 μM of polyP to buffer (20 mM Tris HCl, pH 7.4, 150 mM NaCl and 0.1% BSA) followed by different concentrations of peptide (23.4 nM to 600 nM). α-Thrombin (5 nM) and 60 nM of FXI were then added and samples were incubated at 37°C for 35 minutes. Reactions were stopped with 50 nM of the thrombin inhibitor anophelin [18, 19] and polybrene to dissociate complexes with polyP. S2236 (Chromogenix Inc.) was added to a concentration of 250 μM and product formed was read as absorbance at 405 nm for 5–10 minutes in a microplate reader. Results were expressed as the percentage of the maximum activity (mAU/min) in the absence of peptide. Experiments were performed in duplicate.
The subject of series [8] is thrombin. To be noted: cited from earlier work.
For series [9], the system named is factor Xa. To be noted: cited from earlier work.
Where [10] appears, read: 150 mM NaCl, 0.5 nM thrombin, 37°C, pH 7.4, three experiments, read-out: inhibition constant (Ki), competitive model.

“Also recorded” adds a separate entry of the source. Like-named read-outs stand apart in the source and are kept apart here. Where a SMILES comes first, the peptide text is derived from it. Where no end group is shown, it is not given here.

With `CC[C@H](C)[C@H](NC(=O)[C@H](CCCNC(=N)N)NC(=O)[C@H](CCC(=O)O)NC(=O)[C@H](CO)NC(=O)[C@H](CC(=O)O)NC(=O)[C@H](CCCNC(=N)N)NC(=O)CNC(=O)[C@H](CO)NC(=O)CNC(=O)[C@@H]1CCCN1C(=O)[C@@H](NC(=O)[C@@H]1CCCN1C(=O)[C@H](CC(C)C)NC(=O)[C@H](CCCNC(=N)N)NC(=O)[C@@H]1CCCN1C(=O)[C@H](CCCCN)NC(=O)[C@H](C)NC(=O)[C@@H]1CCCN1C(=O)[C@@H](N)CCC(=O)O)C(C)C)C(=O)N1CCC[C@H]1C(=O)N[C@H](C(=O)N1CCC[C@H]1C(=O)N[C@H](C(=O)N[C@@H](CC(=O)O)C(=O)O)C(C)C)C(C)C` [36–59] (H-EPAKPRLPVPGSGRDSERIPVPVD-OH), the Ki in [1] (setting [10]) amounted to 0.1 ± 0.002 µM; in series [1] (salt concentration 50 mM, read-out: Ki, competitive model), 0.18 ± 0.03 µM. The “cleavage in thrombin-free control” value in series [2] (25 μM peptide without thrombin) was “no cleavage”. For the same compound, in series [2], the “cleavage by thrombin (peptide remaining / digestion)” value was “complete digestion”.

With `CC[C@H](C)[C@H](NC(=O)[C@H](CCCNC(=N)N)NC(=O)[C@H](CCC(=O)O)NC(=O)[C@H](CO)NC(=O)[C@H](CC(=O)O)NC(=O)[C@H](CCCNC(=N)N)NC(=O)CNC(=O)[C@H](CO)NC(=O)CNC(=O)[C@@H]1CCCN1C(=O)[C@@H](NC(=O)[C@@H]1CCCN1C(=O)[C@@H](N)CC(C)C)C(C)C)C(=O)N1CCC[C@H]1C(=O)N[C@H](C(=O)N1CCC[C@H]1C(=O)N[C@H](C(=O)N[C@@H](CC(=O)O)C(=O)O)C(C)C)C(C)C` [42–59] (H-LPVPGSGRDSERIPVPVD-OH), the Ki in series [1] (ionic strength 150 mM, read-out: Ki, non-competitive model) came out at 1.7 ± 0.1 µM; in series [1] (salt concentration 50 mM, read-out: Ki, non-competitive model), 1.8 ± 0.1 µM.

Consider “DESDYDTYPDDNNDDSGERNGGSEPAKPRLPV [hyalomin (13–44) sulfated]”, for which the cleaved bond result in series [3] is on record as “Arg41-Leu42”.

Turning to “DESDYDTYPDDNNDDSGERNGGSEPAKPRLPV [hyalomin-1 (13–44)]”, the cleaved bond result in series [3] is listed as “Arg41-Leu42, 2 hr”.

As for EPAKPRLPVPGSGRDSERIPVPVD, the cleaved bond result in [3] is “Arg41-Leu42, two hours”.

Regarding “KPNLQSRSDDGVDESDYDTYPDDNNDDSGERNGGSEPAKPRLPVPGSGRDSERIPVPVD”, in series [3], the cleaved bond result is listed as “Arg41-Leu42, two hours”.

Take “KPNLQSRSDDGVDESDYDTYPDDNNDDSGERNGGSEPAKPRLPVPGSGRDSERIPVPVD [hyalomin-1]”: in series [4], the “loss of thrombin control activity in the presence of the peptide” value is on record as 72%. In addition, the Ki is 0.0004 ± 0.0001 µM in series [1] (50 mM salt, 0.5 nM thrombin, 37°C, read-out: inhibition constant (Ki), competitive model) and 0.0119 ± 0.0018 µM in series [1] (setting [10]). In addition, the “potency of the inhibitor over incubation time with thrombin” value in series [1] (800:1 peptide to enzyme (400 nM peptide, 0.5 nM thrombin), 37°C, six hour incubation, 50 μM S2238) is given as “diminished in a time-dependent manner”. For the same compound, the Kd in series [5] (SPR, immobilized biotinylated peptide, read-out: calculated dissociation equilibrium constant (KD)) was 0.019 µM. Further, the kon in [5] (peptide biotinylated at N-terminal lysine on neutravidin surface, pH 7.4, 1:1 model, read-out: association rate constant (ka)) was 1e+06 M⁻¹ s⁻¹. For the same compound, the koff in [5] (peptide biotinylated at N-terminal lysine on neutravidin surface, pH 7.4, 1:1 model, read-out: dissociation rate constant (kd)) was determined as 0.02 s⁻¹. Moreover, in [2], the “cleavage by thrombin (peptide remaining / digestion)” value is “No full-length peptide”. Also, the tail bleeding result in series [6] is “significant bleeding”. In [7], this compound showed a concentration for half-maximal inhibition (IC50) of about 0.025 µM.

“YPERDSAKDGNQEKERALLVKVQERYQGNQGDYDEYDQDETTPPPDPTAQTARPRLRQNQD”: the values for the cleaved bond entry in [8] and in series [9] were “cleaved upstream of this site at Lys21” and “cleaved by factor Xa at Arg16; also recorded: cleaved by factor Xa at Arg25”, respectively.

On to “YPERDSAKEGNQEQERALHVKVQKRTDGDADYDEYEEDGTTPTPDPTAPTAKPRLRGNKP”, for which the cleaved bond result in series [8] is “Arg54-Leu55; also recorded: cleaved upstream of this site at Lys21”; in series [9], “cleaved by factor Xa at Arg25; also recorded: cleaved by factor Xa at Arg54; also recorded: cleaved by factor Xa at Arg16”.
